For 23 compounds, EC50 and ΔTm results are on record in patent publication US12162863B2, “Modulators of stimulator of interferon genes (STING)” (RYVU THERAPEUTICS S.A., priority 2018, dated 2024).

Experiment [1] deals with NF-κB pathway in THP-1 dual cells. As to the kind of experiment: THP-1 Dual Reporter Assay, NF-κB pathway (SEAP reporter). In kind it is cell-based. The conditions noted are these: Homo sapiens, THP1-Dual, 18 h of stimulation, absorbance at 630 nm, read-out: THP1 Dual EC50 (μM) NFkB. The protocol: (§1) THP-1 Dual Reporter Assay
(§2) Compounds of the present invention were tested for their activity using THP-1 dual cells (Invivogen, cat no. thpd-nfis) allowing for simultaneous study of NF-κB pathway and the interferon regulatory factor (IRF) pathway. THP-1 dual cells contain luciferase reporter gene under the control of an ISG54 (interferon-stimulated gene) minimal promoter in conjunction with five interferon-stimulated response elements and a secreted embryonic alkaline phosphatase reporter gene under the control an IFN (interferon)-β minimal promoter fused to five copies of the NF-κB consensus transcriptional response element with three copies of the c-Rel binding site. Following 18 h of stimulation with STING agonist, medium was collected and transferred onto fresh cell culture plate. To verify activity of the IRF pathway, luminescence activity was measured with standard laboratory plate reader immediately after addition 10 μl of the medium to 50 μl of luminescence reagent (Invivogen, cat. No. rep-qlc2). To verify activity of NF-κB pathway, 20 μl of the medium was mixed with 80 μl of a detection medium (Invivogen, cat. No. rep-qb2) and incubated for 2 hours at 37° C. in a humidified atmosphere containing 5% CO2. Next, absorbance at 630 nm was recorded using standard laboratory plate reader.
On the technique in general: In a reporter assay the amount or activity of a reporter protein is the signal.

Experiment [2] deals with interferon regulatory factor (IRF) pathway in THP-1 dual cells. As to the kind of experiment: THP-1 Dual Reporter Assay, IRF pathway (luciferase reporter). The class given is cell-based. The conditions noted are these: Homo sapiens, THP1-Dual, 18 h of stimulation, luminescence. The protocol:
as §1, §2

The next experiment deals with human STING (Homo sapiens, UniProt Q86WV6). As to the kind of experiment: Fluorescence Thermal Shift assay. The settings on record: 50 μM compound; STING 0.1 mg/ml; 20 minutes preincubation; read-out: [hSTING] FTS, ΔTm [° C.] for 50 μM. In kind it is binding. The protocol:
Fluorescence Thermal Shift Assay Compounds of the present invention were tested for binding to human STING in Fluorescence Thermal Shift assay. STING was preincubated with the compounds for 20 minutes in 50 mM Hepes, 150 mM NaCl, pH 7.5 in 16 μl volume, following by adding 4 μl of SyproOrange dye dilution (ThermoFisher, cat no. S-6651). Final STING concentration was 0.1 mg/ml. Thermal unfolding was performed in Real-Time PCR QuantStudio 6 Flex System (Applied Biosystems), from 25 to 99° C., with continuous ramp mode and ramp rate 0.033° C./s. The data were analyzed using Protein Thermal Shift Software (ThermoFisher). […] For example, ΔTm [° C.] of FTS assay for following examples are: […]

human STING, sequence (Q86WV6 whole entry H232R): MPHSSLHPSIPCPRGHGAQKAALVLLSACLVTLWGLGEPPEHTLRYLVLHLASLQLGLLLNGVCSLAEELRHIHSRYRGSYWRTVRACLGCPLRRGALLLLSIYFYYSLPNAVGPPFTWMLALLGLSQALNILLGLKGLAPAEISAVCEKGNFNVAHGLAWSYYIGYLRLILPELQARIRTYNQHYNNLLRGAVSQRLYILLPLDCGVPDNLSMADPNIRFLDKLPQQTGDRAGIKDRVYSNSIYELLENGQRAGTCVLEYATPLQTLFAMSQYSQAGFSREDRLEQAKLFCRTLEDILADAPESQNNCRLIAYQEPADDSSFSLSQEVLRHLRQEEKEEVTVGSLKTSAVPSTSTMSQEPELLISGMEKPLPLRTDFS

A word on the EC50: it is the concentration needed to bring the measured effect to its halfway point. Usually ΔTm stands for the shift of the melting midpoint relative to a reference. `COc1cc(CN(CCCn2ccnc2)Cc2coc3cc(N4CCN(C)CC4)ccc3c2=O)ccn1` [Example 34, 3-({[3-(1H-imidazol-1-yl)propyl][(2-methoxypyridin-4-yl)methyl]amino}methyl)-7-(4-methylpiperazin-1-yl)-4H-chromen-4-one]: the figures for the EC50 in experiment [1] and in experiment [2] were 10 to 20 µM and at least 20 µM, respectively. Also, the ΔTm at 50 µM on human STING was below 2.5 °C.

`O=c1c(CN(CCCn2ccnn2)Cc2ccncc2)coc2ccccc12` [Example 4, 3-{[(pyridin-4-ylmethyl)[3-(1H-1,2,3-triazol-1-yl)propyl]amino]methyl}-4H-chromen-4-one]: the EC50 in experiment [1] and in experiment [2] was at least 20 µM throughout. At human STING, the ΔTm at 50 µM was below 2.5 °C.

As to `Cc1oc2cc(N3CCOCC3)c(F)cc2c(=O)c1CN(CCCc1cccnc1)Cc1ccncc1` [Example 70, 6-fluoro-2-methyl-7-(morpholin-4-yl)-3-({[3-(pyridin-3-yl)propyl][(pyridin-4-yl)methyl]amino}methyl)-4H-chromen-4-one], the EC50 in experiment [1] and in experiment [2] was at most 10 µM each time. Also, on human STING, the ΔTm at 50 µM is above 2.5 °C.

Turning to `O=c1c(CN(CCCn2ccnc2)Cc2ccncc2)coc2ccccc12` [Example 33, 3-({[3-(1H-imidazol-1-yl)propyl](pyridin-4-ylmethyl)amino}methyl)-4H-chromen-4-one], the EC50 in experiment [1] was at least 20 µM; in experiment [2], 10 to 20 µM. For the same compound, the shift in melting temperature (ΔTm) at 50 µM at human STING was below 2.5 °C.

`CN1CCN(c2cc3occ(CN(CCCc4cccnc4)Cc4ccncc4)c(=O)c3cc2F)CC1` [Example 58, 6-fluoro-7-(4-methylpiperazin-1-yl)-3-({[3-(pyridin-3-yl)propyl](pyridin-4-ylmethyl)amino}methyl)-4H-chromen-4-one]: the EC50 in experiment [1] and in experiment [2] was at most 10 µM each time. In addition, the ΔTm at 50 µM on human STING was above 2.5 °C.

For `Cc1oc2cc(Br)c(F)cc2c(=O)c1CN(CCCn1cnc2cncnc21)Cc1ccncc1` [Example 73, 7-bromo-6-fluoro-2-methyl-3-({[3-(9H-purin-9-yl)propyl][(pyridin-4-yl)methyl]amino}methyl)-4H-chromen-4-one], the EC50 in experiment [1] is at most 10 µM; in experiment [2] it was 10 to 20 µM. Further, the ΔTm at 50 µM at human STING was above 2.5 °C.

For the compound `O=c1c(CN(CCCn2ccnc2)Cc2ccncc2)coc2cc(-c3ccc(F)cc3)ccc12` [Example 23, 7-(4-fluorophenyl)-3-({[3-(1H-imidazol-1-yl)propyl](pyridin-4-ylmethyl)amino}methyl)-4H-chromen-4-one], the EC50 in experiment [1] and in experiment [2] was at least 20 µM throughout. In addition, the ΔTm at 50 µM on human STING was above 2.5 °C.

In the case of `Cn1cc(CN(CCCc2cccnc2)Cc2ccnc(Cl)c2)c(=O)c2ccccc21` [Example 90, 3-({[(2-chloropyridin-4-yl)methyl][3-(pyridin-3-yl)propyl]amino}methyl)-1-methyl-1,4-dihydroquinolin-4-one], the EC50 in experiment [1] was 10 to 20 µM; in experiment [2], at most 10 µM. Also, the shift in melting temperature (ΔTm) at 50 µM at human STING was above 2.5 °C.

For the compound `O=c1c(CN(CCCn2ccnc2)Cc2ccncc2)coc2cc(O)ccc12` [Example 16, 7-hydroxy-3-({[3-(1H-imidazol-1-yl)propyl](pyridin-4-ylmethyl)amino}methyl)-4H-chromen-4-one], the EC50 in experiment [1] is at least 20 µM; in experiment [2] it was 10 to 20 µM. The ΔTm at 50 µM at human STING is above 2.5 °C.

For `O=c1c(CN(CCCn2ccnc2)Cc2ccncc2)coc2cc(Br)ccc12` [Example 10, 7-bromo-3-({[3-(1H-imidazol-1-yl)propyl](pyridin-4 ylmethyl)amino}methyl)-4H-chromen-4-one], the EC50 was 10 to 20 µM in experiment [1] and at most 10 µM in experiment [2]. In addition, on human STING, the shift in melting temperature (ΔTm) at 50 µM is above 2.5 °C.

Consider `O=c1c(CN(CCCn2ccnc2)Cc2ccncc2)coc2cc(OCc3ccccc3)ccc12` [Example 13, 7-(benzyloxy)-3-({[3-(1H-imidazol-1-yl)propyl](pyridin-4-ylmethyl)amino}methyl)-4H-chromen-4-one], for which the EC50 in experiment [1] and in experiment [2] was at most 10 µM throughout. The ΔTm at 50 µM on human STING was above 2.5 °C.

On to `COc1cc(CN(CCCn2ccnc2)Cc2coc3c(ccc4ccccc43)c2=O)ccn1` [Example 30, 3-({[3-(1H-imidazol-1-yl)propyl][(2-methoxypyridin-4-yl)methyl]amino}methyl)-4H-benzo[h]chromen-4-one], for which the EC50 in experiment [1] and in experiment [2] was at most 10 µM in each case. Further, the ΔTm at 50 µM on human STING is above 2.5 °C.

Turning to `O=c1c(CN(CCCn2ccnc2)Cc2ccncc2)coc2cc(-c3cc[nH]n3)ccc12` [Example 71, 3-({[3-(1H-imidazol-1-yl)propyl](pyridin-4-ylmethyl)amino}methyl)-7-(1H-pyrazol-3-yl)-4H-chromen-4-one], the EC50 in experiment [1] was 10 to 20 µM; in experiment [2] it was at most 10 µM. Further, the ΔTm at 50 µM on human STING is above 2.5 °C.

Regarding `Cc1ccc2c(=O)c(CN(CCCn3ccnc3)Cc3ccncc3)coc2c1C` [Example 5, 3-({[3-(1H-imidazol-1-yl)propyl](pyridin-4-ylmethyl)amino}methyl)-7,8-dimethyl-4H-chromen-4-one], the EC50 in experiment [1] and in experiment [2] was at most 10 µM in each case. At human STING, the ΔTm at 50 µM is above 2.5 °C.

For the compound `O=c1c(CN(CCCn2ccnc2)Cc2ccncc2)coc2c3c(ccc12)CCCC3` [Example 20, 3-({[3-(1H-imidazol-1-yl)propyl](pyridin-4-ylmethyl)amino}methyl)-4H,7H,8H,9H,10-cyclohexa[h]chromen-4-one], the EC50 in experiment [1] and in experiment [2] was at most 10 µM in each case. Moreover, on human STING, the shift in melting temperature (ΔTm) at 50 µM is below 2.5 °C.

`Cc1oc2cc(Br)ccc2c(=O)c1CN(CCCc1cccnc1)Cc1ccncc1` [Example 64, 7-bromo-2-methyl-3-({[3-(pyridin-3-yl)propyl](pyridin-4-ylmethyl)amino}methyl)-4H-chromen-4-one]: the EC50 in experiment [1] and in experiment [2] was at most 10 µM each time. Besides, at human STING, the ΔTm at 50 µM is above 2.5 °C.

In the case of `COc1cccc(-c2cc3occ(CN(CCCn4ccnc4)Cc4ccncc4)c(=O)c3cc2F)c1` [Example 57, 6-fluoro-3-({[3-(1H-imidazol-1-yl)propyl][(pyridin-4-yl)methyl]amino}methyl)-7-(3-methoxyphenyl)-4H-chromen-4-one], the EC50 in experiment [1] and in experiment [2] was at least 20 µM throughout. In addition, the ΔTm at 50 µM on human STING was above 2.5 °C.

For `COc1cc(CN(CCCc2cc[nH]c(=O)c2)Cc2coc3c(ccc4ccccc43)c2=O)ccn1` [Example 93, 4-(3-{[(2-methoxypyridin-4-yl)methyl]({4-oxo-4H-benzo[h]chromen-3-yl}methyl)amino}propyl)-1,2-dihydropyridin-2-one], the EC50 in experiment [1] and in experiment [2] was at least 20 µM in each case. The ΔTm at 50 µM at human STING is above 2.5 °C.

For the compound `O=c1c(CN(CCCn2ccnc2)Cc2ccncc2)cnc2ccccn12` [Example 35, 3-({[3-(1H-imidazol-1-yl)propyl][(pyridin-4-yl)methyl]amino}methyl)-4H-pyrido[1,2-a]pyrimidin-4-one], the EC50 in experiment [1] and in experiment [2] was at least 20 µM in each case.

Regarding `COc1cc(CN(CCCc2cncc3[nH]ncc23)Cc2c(C)oc3cc(Br)c(F)cc3c2=O)ccn1` [Example 92, 7-bromo-6-fluoro-3-({[(2-methoxypyridin-4-yl)methyl](3-{1H-pyrazolo[3,4-c]pyridin-4-yl}propyl)amino}methyl)-2-methyl-4H-chromen-4-one], the half-maximal effective concentration (EC50) in experiment [1] and in experiment [2] was at least 20 µM each time.

For the compound `COc1cc(CN(CCCn2cnc3ccccc32)Cc2cnc3ccccn3c2=O)ccn1` [Example 86, 3-({[3-(1H-1,3-benzodiazol-1-yl)propyl][(2-methoxypyridin-4-yl)methyl]amino}methyl)-4H-pyrido[1,2-a]pyrimidin-4-one], the concentration for a half-maximal effect (EC50) in experiment [1] and in experiment [2] was at least 20 µM in each case.

Consider `N#Cc1ccc2c(=O)c(CN(CCCn3ccnc3)Cc3ccncc3)coc2c1` [Example 24, 3-({[3-(1H-imidazol-1-yl)propyl][(pyridin-4-yl)methyl]amino}methyl)-4-oxo-4H-chromene-7-carbonitrile], for which the EC50 in experiment [1] and in experiment [2] was at least 20 µM each time.

As to `COc1cc(CN(CCCn2cnc3ccccc32)Cc2c(C)oc3c(ccc4ccccc43)c2=O)ccn1` [Example 87, 3-({[3-(1H-1,3-benzodiazol-1-yl)propyl][(2-methoxypyridin-4-yl)methyl]amino}methyl)-2-methyl-4H-benzo[h]chromen-4-one], the concentration for a half-maximal effect (EC50) in experiment [1] and in experiment [2] was at least 20 µM in each case.
